Read-outs that look alike come from different tables or passages of the source. One block for each compound: values may come before it.
What was measured:
[1] = molecular target: T1, GST/PTP-S31 fusion protein (S31D) (Homo sapiens, UniProt Q9UMZ3); experiment: PTP assay of GST/PTP-S31D fusion protein on glutathione-Sepharose beads, substrate pNP-P, effect of agents; assay type: biochemical; details: 25 mM pNP-P
T1 construct: p16 encodes a fusion protein of glutathione-S-transferase and PTP-S31D (starting with the first methionine); made in house; host or cells: E. coli DH5α and SURE
T1 sequence (Q9UMZ3 with tags, fused parts or gaps): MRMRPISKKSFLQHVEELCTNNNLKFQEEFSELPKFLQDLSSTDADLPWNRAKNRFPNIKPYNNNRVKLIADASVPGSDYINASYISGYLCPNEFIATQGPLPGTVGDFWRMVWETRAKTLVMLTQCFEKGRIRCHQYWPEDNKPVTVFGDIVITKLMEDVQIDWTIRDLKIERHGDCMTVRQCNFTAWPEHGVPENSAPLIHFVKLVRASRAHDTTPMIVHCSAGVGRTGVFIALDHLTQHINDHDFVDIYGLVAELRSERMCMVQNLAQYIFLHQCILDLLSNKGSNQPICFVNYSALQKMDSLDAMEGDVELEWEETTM
Method: The activity of PTP-S31D towards the substrate p-nitrophenyl phosphate (pNP-P) was measured essentially as described by Tonks et al., J. Biol. Chem. 263:6731-6737 (1988)). Increasing amounts of the glutathione-Sepharose beads with GST/PTP-S31D, GST/PTP-S31C and GST, respectively, from above were incubated with 25 mM pNP-P at room temperature in a reaction mixture containing 50 mM 2-(N-morpholino) ethane sulfonic acid (MES) pH 5.5, 10 mM dithiothreitol, and 5 mM ethylenediamine tetraacetic acid (EDTA). The reaction was stopped by addition of equal volumes of 0.4 M NaOH. After centrifugation, the supernatants were transferred to microtiter plates and the absorbance at 405 nm was read with a Dynatech MR5000 reader.
The activity of the GST/PTP-S31D fusion protein towards pNP-P is measured as described in Section 10, above. The substances to be analyzed for their ability to stimulate or inhibit phosphatase activity are added to the GST/PTP-S31D fusion protein 5 minutes prior to the addition of pNP-P. A similar procedure is used for PTP-S31D expressed in 293 cells, where the PTP-S31D/293 cell lysate is used directly.
The indicated concentrations of the agents are the final concentrations in the reaction mixture after addition of the substrate, pNP-P. The phosphatase assay mixture contained 50 mM 2-(N-Morpholino)ethane sulfonic acid (MES) pH 5.5, 10 mM dithiothreitol, 25 mM pNP-P and 2 μl of the GST/PTP-S31-Sepharose suspension. When testing orthovanadate, poly(Glu/Tyr) 4:1 and poly-L-lysine, 5 mM EDTA was included in the assay mixture. The reaction was carried out at room temperature and stopped after 30 minutes by addition of equal volumes of 0.4M NaOH. After centrifugation, the supernatants were transferred to microtiter plates and the absorbance at 405 nm read with a Dynatech MR5000 plate reader. For comparison, Table I includes published data of the activity of PTPB and LAR using Raytide as a substrate (Itoh et al (J. Biol. Chem. 267: 12356-12363 (1992)).

[2] = molecular target: PTPβ (Homo sapiens, UniProt P23467); details: Raytide substrate, cited from earlier work
[3] = system: LAR; details: Raytide substrate, cited from earlier work
[4] = system: skeletal muscle or adipocytes; details: whole cells such as skeletal muscle or adipocytes; cited from earlier work
[5] = agent 1 mM final, MES pH 5.5, 30 min room temperature
[6] = agent 10 mM final, MES pH 5.5, 30 min room temperature
[7] = agent 0.1 mM final, MES pH 5.5, 30 min room temperature
[8] = agent 1 μg/ml final, MES pH 5.5, 5 mM EDTA, 30 min room temperature
[9] = agent 10 μg/ml final, MES pH 5.5, 5 mM EDTA, 30 min room temperature
[10] = agent 100 μg/ml final, MES pH 5.5, 5 mM EDTA, 30 min room temperature

PTPβ, sequence (P23467 1643-1997 limits assumed): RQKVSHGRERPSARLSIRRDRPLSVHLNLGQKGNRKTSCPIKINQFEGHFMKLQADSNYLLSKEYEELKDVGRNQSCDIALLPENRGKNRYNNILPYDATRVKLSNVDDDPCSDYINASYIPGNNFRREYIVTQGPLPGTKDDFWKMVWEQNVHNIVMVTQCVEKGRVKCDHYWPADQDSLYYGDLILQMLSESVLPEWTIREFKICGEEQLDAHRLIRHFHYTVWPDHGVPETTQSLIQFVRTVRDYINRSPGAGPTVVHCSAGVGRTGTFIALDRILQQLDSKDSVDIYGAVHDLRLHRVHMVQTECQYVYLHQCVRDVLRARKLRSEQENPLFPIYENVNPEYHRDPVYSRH

Compound: [Cl-].[Cl-].[Mg+2] [MgCl2]
PTP Activity (% of control) S31D [1, 5]: 123 % of control
PTP Activity (% of control) S31D [1, 6]: 140 % of control
PTP Activity (% of control) PTPβ ([2]; agent 1 mM): 90 % of control
PTP Activity (% of control) PTPβ ([2]; agent 10 mM): 141 % of control
PTP Activity (% of control) LAR ([3]; agent 1 mM): 119 % of control
PTP Activity (% of control) LAR ([3]; agent 10 mM): 56 % of control

Compound: pervanadate
insulin response of whole cells [4]: almost full insulin response

Compound: poly-L-lysine
PTP Activity (% of control) S31D [1, 8]: 156 % of control
PTP Activity (% of control) S31D [1, 9]: 172 % of control
PTP Activity (% of control) S31D [1, 10]: 192 % of control
PTP Activity (% of control) PTPβ ([2]; agent 1 μg/ml): 239 % of control
PTP Activity (% of control) PTPβ ([2]; agent 10 μg/ml): 653 % of control
PTP Activity (% of control) PTPβ ([2]; agent 100 μg/ml): 125 % of control
PTP Activity (% of control) LAR ([3]; agent 1 μg/ml): 123 % of control
PTP Activity (% of control) LAR ([3]; agent 10 μg/ml): 230 % of control
PTP Activity (% of control) LAR ([3]; agent 100 μg/ml): 247 % of control

Further lines, with some results ahead:

PTP Activity (% of control) S31D [1, 5]: 110 % of control
PTP Activity (% of control) S31D [1, 6]: 140 % of control
Compound: [Cl][Mn][Cl] [MnCl2]
PTP Activity (% of control) PTPβ ([2]; agent 1 mM): 85 % of control
PTP Activity (% of control) PTPβ ([2]; agent 10 mM): 64 % of control
PTP Activity (% of control) LAR ([3]; agent 1 mM): 72 % of control
PTP Activity (% of control) LAR ([3]; agent 10 mM): 30 % of control

PTP Activity (% of control) S31D [1, 7]: 64 % of control
PTP Activity (% of control) S31D [1, 5]: 23 % of control
Compound: [O]=[V]([O-])([O-])[O-] [Orthovanadate, orthovanadate]
PTP Activity (% of control) PTPβ ([2]; agent 0.1 mM): 33 % of control
PTP Activity (% of control) PTPβ ([2]; agent 1 mM): 6 % of control
PTP Activity (% of control) LAR ([3]; agent 0.1 mM): 59 % of control
PTP Activity (% of control) LAR ([3]; agent 1 mM): 25 % of control

PTP Activity (% of control) S31D [1, 7]: 68 % of control
PTP Activity (% of control) S31D [1, 5]: 13 % of control
PTP Activity (% of control) S31D [1, 6]: 9 % of control
Compound: [Cl-].[Cl-].[Zn+2] [ZnCl2]
PTP Activity (% of control) PTPβ ([2]; agent 0.1 mM): 18 % of control
PTP Activity (% of control) PTPβ ([2]; agent 1 mM): 3 % of control
PTP Activity (% of control) PTPβ ([2]; agent 10 mM): 0 % of control
PTP Activity (% of control) LAR ([3]; agent 0.1 mM): 90 % of control
PTP Activity (% of control) LAR ([3]; agent 1 mM): 120 % of control
PTP Activity (% of control) LAR ([3]; agent 10 mM): 6 % of control

PTP Activity (% of control) S31D [1, 8]: 84 % of control
PTP Activity (% of control) S31D [1, 9]: 85 % of control
PTP Activity (% of control) S31D [1, 10]: 77 % of control
Compound: poly(Glu/Tyr) 4:1 [Poly (Glu/Tyr)]
PTP Activity (% of control) PTPβ ([2]; agent 1 μg/ml): 97 % of control
PTP Activity (% of control) PTPβ ([2]; agent 10 μg/ml): 85 % of control
PTP Activity (% of control) PTPβ ([2]; agent 100 μg/ml): 61 % of control
PTP Activity (% of control) LAR ([3]; agent 1 μg/ml): 103 % of control
PTP Activity (% of control) LAR ([3]; agent 10 μg/ml): 97 % of control
PTP Activity (% of control) LAR ([3]; agent 100 μg/ml): 96 % of control
